Source: patent US20240033237A1, “USE OF A-KETOGLUTARATE IN MANUFACTURE OF MEDICAMENT” (TONGJI UNIVERSITY, priority 2019, published 2024)

Legend:
NF-κB signaling pathway = assay: Activation of NF-κB signaling pathway in IL-1β-stimulated chondrocytes (whole-genome sequencing, nuclear P65 western blot); format: cell-based, mouse
Description: Mouse chondrocytes were obtained from 7-day-old C57BL/6 mice (Shanghai Slac laboratory animal Co., Ltd.), and the procedure was as follows: under aseptic surgical conditions, bilateral knee cartilages of C57 mice were carefully stripped and digested with 0.2% neutral collagenase (Serva, Germany) for 8 h; cell precipitates were obtained by centrifugation, and the cells were resuspended in modified Eagle medium (DMEM) (Gibco, USA) containing 10% FBS, inoculated in culture dishes, and cultured with high-sugar DMEM medium (containing 10% FBS, 100 U/mL penicillin and 100 mg/L streptomycin) at 37° C. in a 5% CO2 constant temperature incubator. The medium was changed for the first time at 48 h. […] The cells were collected by centrifugation and resuspended, and the concentration was adjusted for inoculation in culture dishes. The cells were subcultured by the above method, and the obtained cells were labeled as P1, P2, P3 generations, etc. P1 generation mouse chondrocytes cultured in Embodiment 1 were subjected to western blot analysis through operations including the following: • 1. Collecting of protein samples: The culture medium was sucked out, and the cells were washed twice with PBS at 4° C. and then dried. […] The protein concentration was determined by the BCA Protein Quantification Kit. […]

skin hair follicles = assay: Regeneration level of skin hair follicles in mice, intradermal injection, histological staining; format: in vivo; conditions: 12-month-old mice, 4 weeks after injection, vs PBS group
Description: The skin on the back of posterior limbs of 12-month-old aged mice was taken, and the treatment group was intradermally injected with PBS-diluted α-KG (1 μl of dimethyl-α-KG dissolved in 4 μl of PBS). A sham operation was performed and PBS was injected as a control. Histological staining was performed to observe the changes of skin hair follicles at 4 weeks after injection.

In the case of `COC(=O)CCC(=O)C(=O)OC` [α-KG, dimethyl-α-ketoglutarate], the “expression of P65 in the NF-κB signaling pathway in the nucleus” value (NF-κB signaling pathway; western blot, IL-1β 0 min, 15 min, 30 min, 60 min, 7 mM α-KG) is reported as “significantly inhibited”, the “expression of many genes in the NF-κB signaling pathway” value (NF-κB signaling pathway; whole-genome sequencing, IL-1β stimulation, α-KG complemented) is reported as “suppressed” and the “number of skin hair follicles” value (skin hair follicles) is reported as “significantly increased”.
